Data as given in patent US10913738B2 (BRISTOL-MYERS SQUIBB COMPANY, priority 2017, dated 2021).
Where two headings read alike, the source gives them in different places.

How the values were obtained:
[1] = tested on: MLKL phosphorylation in HT29-L23 human colorectal adenocarcinoma cells; test: MLKL Phosphorylation High-Content Assay; assay type: cell-based; details: Homo sapiens
In short: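 IC50 and Ymax obtained by 4-parameter logistic fitting of MLKL phosphorylation, measured as mean circ-ring average intensity ratio from high-content images. Staining used an anti-phospho-S358 MLKL antibody overnight at 4° C., following six-hour cell incubation at 37° C.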

[2] = molecular target: T1, His-GST-TVMV-hRIPK1(1-324) (Homo sapiens, UniProt Q13546); test: RIPK1 HTRF Binding Assay
T1 construct: The coding region of human RIPK1(1-324) flanked by NdeI site at 5′ end; made in house; host or cells: Spodoptera frugiperda (Sf9) insect cells, baculovirus
T1 sequence (Q13546 1-324): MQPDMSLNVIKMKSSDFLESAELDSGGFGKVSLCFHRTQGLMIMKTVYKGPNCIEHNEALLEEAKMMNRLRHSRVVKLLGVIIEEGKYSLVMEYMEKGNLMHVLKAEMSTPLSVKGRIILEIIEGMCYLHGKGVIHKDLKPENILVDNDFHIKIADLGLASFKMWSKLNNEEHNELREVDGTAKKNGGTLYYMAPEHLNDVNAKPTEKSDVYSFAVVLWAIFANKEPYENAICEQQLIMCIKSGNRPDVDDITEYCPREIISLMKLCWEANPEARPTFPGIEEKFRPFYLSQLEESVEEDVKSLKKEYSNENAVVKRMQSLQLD

[3] = x marks IC50 class <20 nM, read-out: pMLKL cell activity <20 nM
[4] = x marks IC50 class <20 nM, read-out: RIPK1 HTRF binding <20 nM
[5] = x marks IC50 class 20-200 nM, read-out: pMLKL cell activity 20-200 nM
[6] = x marks IC50 class 20-200 nM, read-out: RIPK1 HTRF binding 20-200 nM
[7] = x marks IC50 class >200 nM, read-out: pMLKL cell activity >200 nM

COc1ncc(-c2ccn3nc(N)nc3c2)cc1C(=O)NCc1cc(F)ccc1OCC(F)(F)F [Example 339, 5-(2-amino-[1,2,4]triazolo[1,5-a]pyridin-7-yl)-N-(5-fluoro-2-(2,2,2-trifluoroethoxy)benzyl)-2-methoxynicotinamide]
IC50 [1, 3]: < 20 nM | IC50 [2, 4]: < 20 nM

COc1ncc(-c2ccn3nc(N)nc3c2)cc1C(=O)NCc1ccccc1OCC(C)C [Example 340, 5-(2-amino-[1,2,4]triazolo[1,5-a]pyridin-7-yl)-N-(2-isobutoxybenzyl)-2-methoxynicotinamide]
IC50 [1, 5]: 20 to 200 nM | IC50 [2, 4]: < 20 nM

COc1ncc(-c2ccn3nc(N)nc3c2)cc1C(=O)NCc1cc(F)cc(F)c1OC1CCCOC1 (stereo not drawn) [Example 342, 5-(2-amino-[1,2,4]triazolo[1,5-a]pyridin-7-yl)-N-(3,5-difluoro-2-((tetrahydro-2H-pyran-3-yl)oxy)benzyl)-2-methoxynicotinamide]
IC50 [1, 5]: 20 to 200 nM | IC50 [2, 4]: < 20 nM

COc1ncc(-c2ccn3nc(N)nc3c2)cc1C(=O)NCc1ccccc1OCC(F)(F)F [Example 343, 5-(2-amino-[1,2,4]triazolo[1,5-a]pyridin-7-yl)-2-methoxy-N-(2-(2,2,2-trifluoroethoxy)benzyl)nicotinamide]
IC50 [1, 5]: 20 to 200 nM | IC50 [2, 4]: < 20 nM

COc1ncc(-c2ccn3nc(N)nc3c2)cc1C(=O)NCc1cc(F)cc(F)c1OC1CC1 [Example 344, 5-(2-amino-[1,2,4]triazolo[1,5-a]pyridin-7-yl)-N-(2-cyclopropoxy-3,5-difluorobenzyl)-2-methoxynicotinamide]
IC50 [1, 5]: 20 to 200 nM | IC50 [2, 4]: < 20 nM

[2H]C([2H])([2H])[C@@H](NC(=O)c1cc(-c2ccn3nc(N)nc3c2)cnc1OC)c1cccc(OC(F)(F)F)c1 [Example 346, (R)-5-(2-amino-[1,2,4]triazolo[1,5-a]pyridin-7-yl)-2-methoxy-N-(1-(3-(trifluoromethoxy)phenyl)ethyl-2,2,2-d3)nicotinamide]
IC50 [1, 5]: 20 to 200 nM | IC50 [2, 4]: < 20 nM

[2H]C([2H])([2H])[C@H](NC(=O)c1cc(-c2ccn3nc(N)nc3c2)cnc1OC)c1cc(C(F)(F)F)ccc1F [Example 347, (S)-5-(2-amino-[1,2,4]triazolo[1,5-a]pyridin-7-yl)-N-(1-(2-fluoro-5-(trifluoromethyl)phenyl)ethyl-2,2,2-d3)-2-methoxynicotinamide]
IC50 [1, 5]: 20 to 200 nM | IC50 [2, 6]: 20 to 200 nM

COc1ncc(-c2ccn3nc(N)nc3c2)cc1C(=O)NCc1ccccc1COC(C)C [Example 348, 5-(2-amino-[1,2,4]triazolo[1,5-a]pyridin-7-yl)-N-(2-(isopropoxymethyl)benzyl)-2-methoxynicotinamide]
IC50 [1, 5]: 20 to 200 nM | IC50 [2, 4]: < 20 nM

[2H]C([2H])(NC(=O)c1cc(-c2ccn3nc(N)nc3c2)cnc1OC)c1cc(C(F)(F)F)ccc1F [Example 349, 5-(2-amino-[1,2,4]triazolo[1,5-a]pyridin-7-yl)-N-((2-fluoro-5-(trifluoromethyl)phenyl)methyl-d2)-2-methoxynicotinamide]
IC50 [1, 5]: 20 to 200 nM | IC50 [2, 6]: 20 to 200 nM

COc1nc(C)c(-c2ccn3nc(N)nc3c2)cc1C(=O)NCc1cc(F)cc(F)c1OC1CCCOC1 (stereo not drawn) [Example 350, 5-(2-amino-[1,2,4]triazolo[1,5-a]pyridin-7-yl)-N-(3,5-difluoro-2-((tetrahydro-2H-pyran-3-yl)oxy)benzyl)-2-methoxy-6-methylnicotinamide]
IC50 [1, 3]: < 20 nM | IC50 [2, 4]: < 20 nM

COc1nc(C)c(-c2ccn3nc(N)nc3c2)cc1C(=O)NCc1cc(F)cc(F)c1O[C@H]1CCOC1 [Example 351, (S)-5-(2-amino-[1,2,4]triazolo[1,5-a]pyridin-7-yl)-N-(3,5-difluoro-2-((tetrahydrofuran-3-yl)oxy)benzyl)-2-methoxy-6-methylnicotinamide]
IC50 [1, 3]: < 20 nM | IC50 [2, 4]: < 20 nM

COc1nc(C)c(-c2ccn3nc(N)nc3c2)cc1C(=O)NCc1cc(F)cc(F)c1OC1CCOC(C)C1 (stereo not drawn) [Example 352, 5-(2-amino-[1,2,4]triazolo[1,5-a]pyridin-7-yl)-N-(3,5-difluoro-2-((2-methyltetrahydro-2H-pyran-4-yl)oxy)benzyl)-2-methoxy-6-methylnicotinamide]
IC50 [1, 5]: 20 to 200 nM | IC50 [2, 4]: < 20 nM

COc1nc(C)c(-c2ccn3nc(N)nc3c2)cc1C(=O)NCc1cc(F)cc(F)c1OC1CC(C)OC(C)C1 (stereo not drawn) [Example 353, 5-(2-amino-[1,2,4]triazolo[1,5-a]pyridin-7-yl)-N-(2-((2,6-dimethyltetrahydro-2H-pyran-4-yl)oxy)-3,5-difluorobenzyl)-2-methoxy-6-methylnicotinamide]
IC50 [1, 5]: 20 to 200 nM | IC50 [2, 4]: < 20 nM

COc1nc(C)c(-c2ccn3nc(N)nc3c2)cc1C(=O)NCc1cc(F)cc(F)c1O[C@@H]1CCOC1 [Example 354, (R)-5-(2-amino-[1,2,4]triazolo[1,5-a]pyridin-7-yl)-N-(3,5-difluoro-2-((tetrahydrofuran-3-yl)oxy)benzyl)-2-methoxy-6-methylnicotinamide]
IC50 [1, 5]: 20 to 200 nM | IC50 [2, 4]: < 20 nM

COc1nc(C)c(-c2ccn3nc(N)nc3c2)cc1C(=O)NCc1cccc(F)c1CN1CCOCC1 [Example 355, 5-(2-amino-[1,2,4]triazolo[1,5-a]pyridin-7-yl)-N-(3-fluoro-2-(morpholinomethyl)benzyl)-2-methoxy-6-methylnicotinamide]
IC50 [1, 5]: 20 to 200 nM | IC50 [2, 4]: < 20 nM

COc1nc(C)c(-c2ccn3nc(N)nc3c2)cc1C(=O)NCc1cccc(F)c1OC1C[C@@H](C)O[C@@H](C)C1 (stereo partly drawn) [Example 356, 5-(2-amino-[1,2,4]triazolo[1,5-a]pyridin-7-yl)-N-(2-(((2R,6S)-2,6-dimethyltetrahydro-2H-pyran-4-yl)oxy)-3-fluorobenzyl)-2-methoxy-6-methylnicotinamide]
IC50 [1, 7]: > 200 nM | IC50 [2, 6]: 20 to 200 nM | IC50 [2, 4]: < 20 nM

COc1nc(C)c(-c2ccn3nc(N)nc3c2)cc1C(=O)NCc1ccccc1CN1CCCCC1 [Example 358, 5-(2-amino-[1,2,4]triazolo[1,5-a]pyridin-7-yl)-2-methoxy-6-methyl-N-(2-(piperidin-1-ylmethyl)benzyl)nicotinamide]
IC50 [1, 7]: > 200 nM | IC50 [2, 6]: 20 to 200 nM

COc1nc(C)c(-c2ccn3nc(N)nc3c2)cc1C(=O)NCc1cc(F)cc(F)c1O[C@@H]1CCN(C)C1 [Example 359, (R)-5-(2-amino-[1,2,4]-triazolo[1,5-a]pyridin-7-yl)-N-(3,5-difluoro-2-((1-methylpyrrolidin-3-yl)oxy)benzyl)-2-methoxy-6-methylnicotinamide]
IC50 [1, 7]: > 200 nM | IC50 [2, 6]: 20 to 200 nM

COc1ncc(-c2ccn3nc(N)nc3c2)cc1C(=O)NCc1cc(F)cc(F)c1O[C@H]1CCOC1 [Example 360, (S)-5-(2-amino-[1,2,4]triazolo[1,5-a]pyridin-7-yl)-N-(3,5-difluoro-2-((tetrahydrofuran-3-yl)oxy)benzyl)-2-methoxynicotinamide]
IC50 [1, 5]: 20 to 200 nM | IC50 [2, 4]: < 20 nM

COc1ncc(-c2ccn3nc(N)nc3c2)cc1C(=O)NCc1cc(F)cc(F)c1OC1CCOC(C)C1 (stereo not drawn) [Example 361, 5-(2-amino-[1,2,4]triazolo[1,5-a]pyridin-7-yl)-N-(3,5-difluoro-2-((2-methyltetrahydro-2H-pyran-4-yl)oxy)benzyl)-2-methoxynicotinamide]
IC50 [1, 5]: 20 to 200 nM | IC50 [2, 4]: < 20 nM

COc1ncc(-c2ccn3nc(N)nc3c2)cc1C(=O)NCc1cc(F)cc(F)c1OC1CC(C)OC(C)C1 (stereo not drawn) [Example 362, 5-(2-amino-[1,2,4]triazolo[1,5-a]pyridin-7-yl)-N-(2-((2,6-dimethyltetrahydro-2H-pyran-4-yl)oxy)-3,5-difluorobenzyl)-2-methoxynicotinamide]
IC50 [1, 5]: 20 to 200 nM | IC50 [2, 6]: 20 to 200 nM

COc1ncc(-c2ccn3nc(N)nc3c2)cc1C(=O)NCc1cc(F)cc(F)c1O[C@@H]1CCOC1 [Example 363, (R)-5-(2-amino-[1,2,4]triazolo[1,5-a]pyridin-7-yl)-N-(3,5-difluoro-2-((tetrahydrofuran-3-yl)oxy)benzyl)-2-methoxynicotinamide]
IC50 [1, 5]: 20 to 200 nM | IC50 [2, 4]: < 20 nM

COc1ncc(-c2ccn3nc(N)nc3c2)cc1C(=O)NCc1cc(F)cc(F)c1OC1COC1 [Example 364, 5-(2-amino-[1,2,4]triazolo[1,5-a]pyridin-7-yl)-N-(3,5-difluoro-2-(oxetan-3-yloxy)benzyl)-2-methoxynicotinamide]
IC50 [1, 5]: 20 to 200 nM | IC50 [2, 4]: < 20 nM

COc1ncc(-c2ccn3nc(N)nc3c2)cc1C(=O)NCc1cccc(F)c1CN1CCOCC1 [Example 365, 5-(2-amino-[1,2,4]triazolo[1,5-a]pyridin-7-yl)-N-(3-fluoro-2-(morpholinomethyl)benzyl)-2-methoxynicotinamide]
IC50 [1, 7]: > 200 nM | IC50 [2, 6]: 20 to 200 nM

COc1nc(C)c(-c2ccn3nc(N)nc3c2)cc1C(=O)NCc1ncccc1OCC(F)(F)F [Example 366, 5-(2-amino-[1,2,4]triazolo[1,5-a]pyridin-7-yl)-2-methoxy-6-methyl-N-((3-(2,2,2-trifluoroethoxy)pyridin-2-yl)methyl)nicotinamide]
IC50 [1, 7]: > 200 nM | IC50 [2, 4]: < 20 nM
